Test system: methane production in human stool
Assay: Methane production in human stool homogenates of IBS-C patients (head gas analysed by gas chromatography)
Assay type: cell-based
Settings: stool homogenates of methane-producing human IBS-C patients, anaerobic chamber; 0.5, 1, 5 and 10 mg of statin per g of stool; head gas at baseline, 90 minute intervals for 3 hours and overnight (~720 min); FIG. 4
Description: Fresh stool samples were provided by two methane-producing human IBS-C patients (breath methane>10 ppm) who had provided an informed consent. Different concentrations of stool from each patient were homogenized in deoxygenated PBS (3 ml PBS/2 g stool) inside an anaerobic incubation chamber. Plead gas was extracted through a stopcock at various timepoints ([…], and following overnight incubation) and methane levels in the head gas at each timepoint were analyzed by gas chromatography using a Quintron SC gas chromatograph (Quintron Instrument Company, Milwaukee, Wis.).
The effects of lovastatin lactone, lovastatin ß-hydroxyacid and lovastatin diol on methane production were evaluated by incubating various concentrations of these molecules (0 mg, 0.5 mg, 1 mg, 5 mg and 10 mg of statin per g of human stool) with human stool homogenates in an anaerobic chamber as described above. Plead gas samples were drawn from each flask for methane analysis at baseline and at 90 minute intervals for 3 hours, followed by a final sample after overnight incubation (˜720 min).

SMILES	inhibition of methane production in human stool
C[C@H]1C=C2C=C[C@H](C)[C@H](CCC3C[C@@H](O)CC(=O)O3)[C@H]2[C@@H](O)C1 (stereo partly drawn) [lovastatin diol lactone]	effective inhibitors of methane production
CC[C@H](C)C(=O)O[C@H]1C[C@@H](C)C=C2C=C[C@H](C)[C@H](CC[C@@H](O)C[C@@H](O)CC(=O)O)[C@H]21 [lovastatin R-hydroxyacid, lovastatin ß-hydroxyacid]	ineffective as an inhibitor of methane production
CC[C@H](C)C(=O)O[C@H]1C[C@@H](C)C=C2C=C[C@H](C)[C@H](CC[C@@H]3C[C@@H](O)CC(=O)O3)[C@H]21 [Lovastatin lactone, lovastatin lactone]	effective inhibitors of methane production
